Experimental data as given in ChEMBL document CHEMBL1124039, “Angiotensin-converting enzyme inhibitors. 2. Perhydroazepin-2-one derivatives” (J Med Chem, 1988).

Each compound was assayed against T1, Angiotensin-converting enzyme (Oryctolagus cuniculus, UniProt P12822) (assay: Concentration required for 50% inhibition of rabbit lung Angiotensin I converting enzyme with 5 mM hippuryl-histidyl-leucine as substrate).
T1 sequence (P12822 whole entry): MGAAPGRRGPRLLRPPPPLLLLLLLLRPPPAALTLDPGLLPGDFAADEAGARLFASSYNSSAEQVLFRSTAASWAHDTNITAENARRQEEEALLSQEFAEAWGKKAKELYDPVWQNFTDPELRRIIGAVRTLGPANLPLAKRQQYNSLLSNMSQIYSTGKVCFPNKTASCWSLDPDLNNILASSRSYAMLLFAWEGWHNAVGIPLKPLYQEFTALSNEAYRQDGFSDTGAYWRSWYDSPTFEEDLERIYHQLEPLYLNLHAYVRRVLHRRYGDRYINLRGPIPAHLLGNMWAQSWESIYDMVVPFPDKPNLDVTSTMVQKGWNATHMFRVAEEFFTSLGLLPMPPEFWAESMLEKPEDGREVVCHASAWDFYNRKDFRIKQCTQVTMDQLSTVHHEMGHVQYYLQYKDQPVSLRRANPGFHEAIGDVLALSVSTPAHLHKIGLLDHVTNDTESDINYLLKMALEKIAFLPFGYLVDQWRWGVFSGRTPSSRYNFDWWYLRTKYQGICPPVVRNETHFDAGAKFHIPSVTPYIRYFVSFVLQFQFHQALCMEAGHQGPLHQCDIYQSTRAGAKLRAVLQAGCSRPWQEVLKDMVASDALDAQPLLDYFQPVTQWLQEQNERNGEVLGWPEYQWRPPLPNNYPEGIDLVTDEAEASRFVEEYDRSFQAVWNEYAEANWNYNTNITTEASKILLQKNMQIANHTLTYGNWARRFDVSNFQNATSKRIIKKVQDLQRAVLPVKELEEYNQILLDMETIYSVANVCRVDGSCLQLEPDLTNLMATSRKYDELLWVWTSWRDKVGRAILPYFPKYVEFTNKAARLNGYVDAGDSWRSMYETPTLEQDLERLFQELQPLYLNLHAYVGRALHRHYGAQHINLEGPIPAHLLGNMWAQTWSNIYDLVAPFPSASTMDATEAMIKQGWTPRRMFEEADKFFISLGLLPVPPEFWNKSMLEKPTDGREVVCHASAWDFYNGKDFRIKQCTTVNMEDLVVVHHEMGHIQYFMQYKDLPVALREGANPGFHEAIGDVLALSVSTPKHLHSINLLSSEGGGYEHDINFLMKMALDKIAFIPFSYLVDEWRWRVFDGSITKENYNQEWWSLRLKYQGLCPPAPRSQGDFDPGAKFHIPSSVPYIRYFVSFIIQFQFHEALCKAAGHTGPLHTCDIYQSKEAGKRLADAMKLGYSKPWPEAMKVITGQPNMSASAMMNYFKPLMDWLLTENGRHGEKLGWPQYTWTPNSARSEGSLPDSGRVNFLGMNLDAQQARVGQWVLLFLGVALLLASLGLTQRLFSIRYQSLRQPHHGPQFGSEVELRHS

| IC50 [nM] | SMILES |
| --- | --- |
| 3.1 | O=C(O)CN1C[C@@H](c2ccccc2)CC[C@H](N[C@@H](CCc2ccccc2)C(=O)O)C1=O |
| 3.6 | O=C(O)CN1C(=O)[C@@H](N[C@@H](CCc2ccccc2)C(=O)O)CCC[C@H]1c1ccccc1 |
| 4.3 | O=C(O)CN1C[C@H](c2ccccc2)CC[C@H](N[C@@H](CCc2ccccc2)C(=O)O)C1=O |
| 16.2 | O=C(O)CN1C(=O)[C@@H](N[C@@H](CCc2ccccc2)C(=O)O)CCC[C@@H]1c1ccccc1 |
